Reference: patent US20060094003A1, “Acetylcholine-dependent current as a novel ionic target for atrial fibrillation” (priority 2004, published 2006)
Like-named read-outs stand apart in the source and are kept apart here.

Columns and labels:
IKH = format: cell-based, canine; conditions: for effect on IKH (in words): substance alone; for IKH activation by carbachol after pertussis toxin pretreatment (in words): 1.5 mg l−1 PTX, 37° C., at least 9 h; for IKH tail current: following hyperpolarization to −120 mV; for IC50: extracellular ion, read-out: IC50 for time-dependent IKH; for IKH mean current density: at −100 mV; for increase of IKH tail currents: following a pulse to −120 mV
Procedure: (§1) Adult mongrel dogs of either sex (weighing about 20-35 kg) were anaesthetized with pentobarbital (30 mg kg^−1 I.V.) and artificially ventilated with room air. Hearts and adjacent lung tissue were relatively quickly excised through a left lateral thoracotomy and immersed in oxygenated Tyrode solution (composition detailed hereinbelow) at room temperature. […] A left atrial (LA) preparation with the PVs intact was perfused via the left circumflex coronary artery, and subjected to either standard fine-tipped microelectrode recording of action potentials (APs) or cardiomyocyte isolation with collagenase-containing solutions, as previously described (Ehrlich et al. 2003). Six dogs were subjected to atrial tachycardia-induced remodeling induced by 1 week of atrial pacing at about 400 beats min^−1 after ablation of the AV node, as described in Li et al. 1999. Animal care and handling procedures followed the guidelines of the Canadian Council on Animal Care.
(§2) To isolate LA and PV cardiomyocytes, the proximal circumflex artery was cannulated and the distal ends of PV myocardial sleeves (approximately 1-1.5 cm from the PV-LA junction) were marked with silk thread prior to subsequent enzyme perfusion with collagenase (100 U ml^−1, Worthington, type II), in order to facilitate localization of PV sleeves after enzymatic digestion. […] All comparisons were based on PV and LA cardiomyocytes isolated from each dog on each experimental day. After isolation, cells were stored at 4° C. and studied on the same day. For standard microelectrode experiments, intact tissue preparations including the LA and adjacent PVs were mounted in a chamber and perfused via the circumflex artery with oxygenated Krebs solution at 36±0.5° C. (see for example Kneller et al. 2002).
(§3) Currents were recorded with the whole-cell patch-clamp technique at 36±0.5° C., as described in Yue et al. 1996. All junction potentials were zeroed prior to formation of gigaohm seals. […] Capacitance was assessed using 5 mV, 10 ms hyperpolarizing steps from a holding potential (HP) of −60 mV. […] Original recordings are shown in terms of current amplitude, but mean data are presented as current density (pA pF−1) to control for variability in cell size.
(§4) Currents were recorded with hyperpolarizing and depolarizing pulses (generally 4 s duration) from a HP of −40 mV to selected test potentials (TPs). Recordings were repeated 3 times, and mean values obtained. For the determination of reversal potentials, tail currents were recorded after 1.6 s pulses to −120 mV followed by 3.2 s depolarizations to TPs between −110 and +20. All voltage protocols were delivered at 0.1 Hz.
(§5) Tyrode solution contained (mM): NaCl 136, KCl 5.4, MgCl2 1, CaCl2 1, NaH2PO4 0.33, Hepes 5 and dextrose 10 (pH 7.35 with NaOH). The cell-storage solution contained (mM): KCl 20, KH2PO4 10, dextrose 10, mannitol 40, L-glutamic acid 70, β-OH-butyric acid 10, taurine 20, EGTA 10 and 0.1% bovine serum albumin (pH 7.3, KOH). Nifedipine (5 μM) was used to suppress L-type Ca^2+ current (ICa) in all experiments. 4-Aminopyridine (4-AP, 2 mM) was added to suppress transient outward current (Ito). […] Na+ current (INa) contamination was avoided by using a HP of −40 mV for recording of hyperpolarization-induced currents and by substitution of equimolar Tris-HCl for external NaCl for tail-current recordings.

[1] = system: instantaneous inward-rectifier current; assay: Whole-cell patch-clamp of instantaneous inward-rectifier current in canine cardiomyocytes; format: cell-based; conditions: at −120 mV, extracellular ion
Procedure: as §1
as §2, with “For standard microelectrode experiments, intact tissue preparations including the LA and adjacent PVs were mounted in a chamber and perfused via the circumflex artery with oxygenated Krebs solution at 36±0.5° C. (see for example Kneller et al. 2002).” left out
Currents were recorded with the whole-cell patch-clamp technique at 36±0.5° C., as described in Yue et al. 1996. […] Capacitance was assessed using 5 mV, 10 ms hyperpolarizing steps from a holding potential (HP) of −60 mV. […]
as §4, with “Recordings were repeated 3 times, and mean values obtained.” left out, “All voltage protocols were delivered at 0.1 Hz.” left out

holding current = assay: Holding current in whole-cell patch-clamp of cardiomyocytes; format: cell-based, canine
Procedure: as §3, §4
as §5, with “recordings. When different external K^+ concentrations were applied, the osmolarity was kept constant by proportionate reduction of NaCl content in the solution. The standard internal solution contained (mM): potassium aspartate 110, KCl 20, MgCl2 1, MgATP 5, GTP (lithium salt) 0.1, Hepes 10, sodium phosphocreatine 5 and EGTA 5.0 (pH 7.3 with KOH). In experiments with K+-free internal solution, potassium aspartate was replaced by equimolar caesium aspartate and KCl by CsCl and pH was set to 7.3 with CsOH. For standard-microelectrode experiments, a solution containing (mM): NaCl 120, KCl 4, KH2PO4 1.2, MgSO4 1.2, NaHCO3 25, CaCl2 1.25 and dextrose 5 (95% O2-5% CO2, pH 7.4) was used to perfuse the tissue.” for “recordings.”
Stock solutions of BaCl2 (1 M) and CsCl (1 M) were produced initially and used throughout the experiments. Stock solution of isoproterenol was prepared under protection from light on the day of experiments and freshly prepared ascorbic acid (100 μM) was added in order to prevent isoproterenol oxidization. Carbachol (1 μM) was dissolved in Tyrode solution, tertiapin-Q in 0.1% acetic acid. GTPS (0.1 mM) was used in place of GTP in internal solutions for some experiments. For experiments involving pertussis toxin (PTX, stock solution dissolved in distilled H2O) cells were incubated at 37° C. in 1.5 mg I-1 PTX for at least 9 h prior to experiments. Parallel controls were performed with cells from the same isolates incubated in the same fashion and the same solution, but without PTX. […] Unless otherwise specified, drugs were obtained from Sigma.

For Nc1nc2c(ncn2[C@@H]2O[C@H](COP(=O)(O)OP(=O)(O)OP(O)(O)=S)[C@@H](O)[C@H]2O)c(=O)[nH]1 [GTPS], the “further IKH response to carbachol with GTPS in the pipette (in words)” value (IKH; GTPS 0.1 mM in place of GTP) was “fully prevented”, the IKH current density (IKH; at −120 mV, GTPS in pipette, no cholinergic stimulation (regular GTP −3.8±0.6)) was −8.2±0.8 pA pF^−1 and the “effect on IKH (in words)” value (IKH) was “increased”.
In the case of pertussis toxin, the “IKH activation by carbachol after pertussis toxin pretreatment (in words)” value (IKH; 1 μM carbachol) is reported as “prevented”, the “IKH activation by carbachol after pertussis toxin pretreatment (in words)” value (IKH; 1 μM carbachol, listed as PTX) is reported as “attenuated” and the IKH density (IKH; at −120 mV, cells preincubated with PTX, before carbachol) is reported as −6.4±0.8 pA pF^−1. It also gave an IKH tail current (IKH; PTX-preincubated cells, before carbachol) of 1.8±0.6 pA pF^−1.
In the case of [Ba+2].[Cl-].[Cl-] [Ba^2+, BaCl2], the “inhibition of IKH (in words)” value (IKH; 1 μM, most cells) is reported as “inhibited IKH appreciably”, the “inhibition of IKH (in words)” value (IKH; 10 μM) is reported as “full inhibition” and the IC50 (IKH; at −120 mV) is reported as 2 ± 0.3 µM. It also gave an IC50 [1] of 76 ± 17.9 µM.
With CC(C)NCC(O)c1ccc(O)c(O)c1 (stereo not shown) [isoproterenol] the “time to steady-state effect on IKH” value (IKH; 1 μM isoproterenol, PV cell) was ≤ 2 min, the “IKH mean current density” value (IKH; 10 nM isoproterenol (control −0.9±0.1)) was −1.2±0.1 pA pF^−1 and the “IKH mean current density” value (IKH; 100 nM isoproterenol (control −0.9±0.1)) was −1.4±0.2 pA pF^−1. For the same compound, the “IKH mean current density” value (IKH; 1000 nM isoproterenol (control −0.9±0.1)) was −1.5±0.1 pA pF^−1, the mean end-pulse current (IKH; at −120 mV, 1 μM isoproterenol in the presence of 200 nM tertiapin-Q) was 0.20±0.07 pA pF^−1 and the “effect on IKH (in words)” value (IKH) was “increased”. For the same compound, the “increase of holding current” value (holding current; 10 nM isoproterenol) was 59±14%, the holding current (holding current; 10 nM isoproterenol (control 44±11)) was 65±14 pA pF−1 and the “increase of holding current” value (holding current; 100 nM isoproterenol) was 89±33%. For the same compound, the holding current (holding current; 100 nM isoproterenol (control 44±11)) was 70±13 pA pF−1, the “increase of holding current” value (holding current; 1000 nM isoproterenol) was 144±37% and the holding current (holding current; 1000 nM isoproterenol (control 44±11)) was 87±14 pA pF−1.
For C[N+](C)(C)CCOC(N)=O [carbachol], the “average increase of IKH” value (IKH; 1 μM carbachol, voltages between −120 and −90 mV, PV cells) was 188±54%, the IKH current density (IKH; at −120 mV, 1 μM carbachol, GTP-containing pipettes (before −6.2±1.0)) was −10.0±1.2 pA pF^−1 and the IKH current density (IKH; at −120 mV, 1 μM carbachol, GTP-free pipettes (before −8.3±0.7)) was −8.3±1.1 pA pF^−1. For the same compound, the IKH current density (IKH; at −120 mV, 1 μM carbachol, LA cells (baseline −1.9±0.4)) was −4.9±1.1 pA pF^−1, the IKH current density (IKH; at −120 mV, 1 μM carbachol, PV cells (baseline −2.6±0.5)) was −5.0±0.6 pA pF^−1 and the IKH density (IKH; at −120 mV, carbachol, cells incubated without PTX at 37° C. >9 h (before −6.2±1.8)) was −11.5±1.8 pA pF^−1. For the same compound, the IKH density (IKH; at −120 mV, carbachol, cells preincubated with PTX) was −5.5±1.2 pA pF−1, the “increase of IKH tail currents” value (IKH; carbachol, PTX-treated cells) was 127±37% and the “increase of IKH tail currents” value (IKH; carbachol, cells incubated without PTX) was 538±170%. For the same compound, the IKH tail current (IKH; after carbachol, PTX-free conditions (before 2.1±0.7)) was 8.4±1.6 pA pF^−1, the IKH tail current (IKH; after carbachol, PTX-preincubated cells) was 3.4±0.9 pA pF^−1 and the “effect on IKH (in words)” value (IKH) was “increased”.
Compound [Cl-].[Cs+] [Cs^+, CsCl] has an IC50 (IKH; at −120 mV) of 184 ± 18.2 µM and an IC50 [1] of 139 ± 34.2 µM.
